Assay results from PMC10778198, “First-in-Human Dose-Escalation Study of the Novel Oral Depsipeptide Class I-Targeting HDAC Inhibitor Bocodepsin (OKI-179) in Patients with Advanced Solid Tumors” (Cancers, 2023).

System: patients with advanced solid tumors
Experiment: phase I dose escalation: safety, DLT, MTD, RP2D (CTCAE v. 5)
Type: in vivo
Excerpt: Subsequent dosing cohorts were enrolled using a standard 3 + 3 design.
If any patient in any cohort of three patients developed a DLT during cycle 1, an additional three patients were recruited to expand the cohort to up to six evaluable patients. If two or more patients in any expanded cohort developed a DLT, this dose was considered non-tolerated, and dose escalation was discontinued. The MTD was defined as the highest dose level for which no more than one of six patients experienced a DLT.
Patients were continuously evaluated for adverse events throughout the study using the Common Terminology Criteria of Adverse Events (CTCAE v. 5). The patients underwent a clinical history and physical examination, an ECOG PS, a complete blood count (CBCs), chemistry, coagulation studies, urinalysis, a serum pregnancy test (as applicable), a triplicate ECG, an ophthalmology examination, and baseline tumor assessment at screening. During cycle 1, weekly history and physical examination, CBC, chemistry, coagulation parameters, urinalysis, and triplicate ECGs were performed; in subsequent cycles, weekly labs were limited to a CBC. Repeat ophthalmology examinations were performed at cycle 3, day 1, and at the end of treatment. Repeat tumor assessment was performed every 2 cycles (6 weeks) in accordance with RECIST 1.1.

[1] = 4:3 intermittent dosing schedule, all grades

## CC(C)[C@H](N)C(=O)SCC/C=C/[C@@H]1CC(=O)NCc2nc(cs2)C(=O)NC(C)(C)C(=O)N[C@@H](C(C)C)C(=O)O1 [OKI-179, Bocodepsin]
4:3, 350 mg (n = 3), G3
  TEAE: Hypokalaemia: 0 n (%)
  TEAE: Muscular weakness: 0 n (%)
  TEAE: Nasal congestion: 0 n (%)
  TEAE: Nausea: 0 n (%)
  TEAE: Platelet count decreased: 0 n (%)
  TEAE: Proteinuria: 0 n (%)
  TEAE: Pyrexia: 0 n (%)
  TEAE: Vomiting: 0 n (%)
  TEAE: Weight decreased: 0 n (%)
4:3, 450 mg (n = 6), G1
  TEAE: Anemia: 0 n (%)
  TEAE: Back pain: 2 (33) n (%)
  TEAE: Cough: 1 (17) n (%)
  TEAE: Decreased appetite: 1 (17) n (%)
  TEAE: Diarrhea: 0 n (%)
  TEAE: Dyspnea: 0 n (%)
  TEAE: ECG QT prolonged: 1 (17) n (%)
  TEAE: Fatigue: 0 n (%)
  TEAE: Headache: 1 (17) n (%)
  TEAE: Hypokalaemia: 0 n (%)
  TEAE: Muscular weakness: 0 n (%)
  TEAE: Nausea: 2 (33) n (%)
  TEAE: Platelet count decreased: 1 (17) n (%)
  TEAE: Proteinuria: 0 n (%)
  TEAE: Pyrexia: 1 (17) n (%)
  TEAE: Vomiting: 1 (17) n (%)
  TEAE: Weight decreased: 1 (17) n (%)
4:3, 450 mg (n = 6), G2
  TEAE: Anemia: 0 n (%)
  TEAE: Back pain: 0 n (%)
  TEAE: Cough: 0 n (%)
  TEAE: Decreased appetite: 1 (17) n (%)
  TEAE: Diarrhea: 0 n (%)
  TEAE: Dyspnea: 0 n (%)
  TEAE: ECG QT prolonged: 0 n (%)
  TEAE: Fatigue: 0 n (%)
  TEAE: Headache: 0 n (%)
  TEAE: Hypokalaemia: 1 (17) n (%)
  TEAE: Muscular weakness: 0 n (%)
  TEAE: Nasal congestion: 0 n (%)
  TEAE: Nausea: 3 (50) n (%)
  TEAE: Platelet count decreased: 2 (33) n (%)
  TEAE: Proteinuria: 3 (50) n (%)
  TEAE: Pyrexia: 0 n (%)
  TEAE: Vomiting: 0 n (%)
  TEAE: Weight decreased: 0 n (%)
4:3, 450 mg (n = 6), G3
  TEAE: Anemia: 2 (33) n (%)
  TEAE: Back pain: 0 n (%)
  TEAE: Cough: 0 n (%)
  TEAE: Decreased appetite: 0 n (%)
  TEAE: Diarrhea: 0 n (%)
  TEAE: Dyspnea: 0 n (%)
  TEAE: ECG QT prolonged: 1 (17) n (%)
  TEAE: Fatigue: 1 (17) n (%)
  TEAE: Headache: 0 n (%)
  TEAE: Hypokalaemia: 0 n (%)
  TEAE: Muscular weakness: 1 (17) n (%)
  TEAE: Nasal congestion: 0 n (%)
  TEAE: Nausea: 0 n (%)
  TEAE: Platelet count decreased: 0 n (%)
  TEAE: Proteinuria: 0 n (%)
  TEAE: Pyrexia: 0 n (%)
  TEAE: Vomiting: 0 n (%)
  TEAE: Weight decreased: 0 n (%)
[1]
  TEAE: Anemia: 40%
  TEAE: Diarrhea: 25%
  TEAE: Fatigue: 40%
  TEAE: Nausea: 63%
  TEAE: Vomiting: 30%
  TEAE: anorexia: 35%
  TEAE: decreased platelet count: 30%
4:3 schedule
  grade 3 TEAE: anemia: 25%
  grade 3 TEAE: fatigue: 15%
  grade 3 TEAE: prolonged QT: 15%
4:3 schedule, 450 mg
  grade 1 or 2 nausea: 83%
5:2, 300 mg (N=6), All grades
  TEAE: Abdominal pain: 1 (17) N (%)
  TEAE: Anemia: 2 (33) N (%)
  TEAE: Aspartate aminotransferase increased: 1 (17) N (%)
  TEAE: Back pain: 2 (33) N (%)
  TEAE: Bile duct stenosis: 1 (17) N (%)
  TEAE: Blood alkaline phosphatase increased: 1 (17) N (%)
  TEAE: Decreased appetite: 2 (33) N (%)
  TEAE: Dehydration: 1 (17) N (%)
  TEAE: Dysphagia: 1 (17) N (%)
  TEAE: ECG QT prolonged: 2 (33) N (%)
  TEAE: Enterococcal bacteremia: 1 (17) N (%)
  TEAE: Esophagitis: 1 (17) N (%)
  TEAE: Esophagoscopy: 1 (17) N (%)
  TEAE: Eye pain: 1 (17) N (%)
  TEAE: Fatigue: 4 (67) N (%)
  TEAE: Gastritis: 1 (17) N (%)
  TEAE: Hypomagnesaemia: 1 (17) N (%)
  TEAE: Myalgia: 1 (17) N (%)
  TEAE: Nausea: 5 (83) N (%)
  TEAE: Neutrophil count decreased: 1 (17) N (%)
  TEAE: Oropharyngeal pain: 1 (17) N (%)
  TEAE: Pain in extremity: 1 (17) N (%)
  TEAE: Paresthesia: 1 (17) N (%)
  TEAE: Platelet count decreased: 4 (67) N (%)
  TEAE: Pneumonitis: 1 (17) N (%)
  TEAE: Pneumothorax: 1 (17) N (%)
  TEAE: Vomiting: 3 (50) N (%)
5:2, 300 mg (N=6), G1
  TEAE: Abdominal pain: 0 N (%)
  TEAE: Anemia: 1 (17) N (%)
  TEAE: Aspartate aminotransferase increased: 1 (17) N (%)
  TEAE: Back pain: 1 (17) N (%)
  TEAE: Bile duct stenosis: 0 N (%)
  TEAE: Blood alkaline phosphatase increased: 1 (17) N (%)
  TEAE: Decreased appetite: 0 N (%)
  TEAE: Dehydration: 1 (17) N (%)
  TEAE: Dysphagia: 0 N (%)
  TEAE: ECG QT prolonged: 2 (33) N (%)
  TEAE: Enterococcal bacteremia: 0 N (%)
  TEAE: Esophagitis: 1 (17) N (%)
  TEAE: Esophagoscopy: 0 N (%)
  TEAE: Eye pain: 1 (17) N (%)
  TEAE: Fatigue: 1 (17) N (%)
  TEAE: Gastritis: 1 (17) N (%)
  TEAE: Hypomagnesaemia: 1 (17) N (%)
  TEAE: Myalgia: 1 (17) N (%)
  TEAE: Nausea: 4 (67) N (%)
  TEAE: Neutrophil count decreased: 1 (17) N (%)
  TEAE: Oropharyngeal pain: 0 N (%)
  TEAE: Pain in extremity: 0 N (%)
  TEAE: Paresthesia: 1 (17) N (%)
  TEAE: Platelet count decreased: 4 (67) N (%)
  TEAE: Pneumonitis: 0 N (%)
  TEAE: Pneumothorax: 0 N (%)
  TEAE: Vomiting: 2 (33) N (%)
5:2, 300 mg (N=6), G2
  TEAE: Abdominal pain: 1 (17) N (%)
  TEAE: Anemia: 0 N (%)
  TEAE: Aspartate aminotransferase increased: 0 N (%)
  TEAE: Back pain: 0 N (%)
  TEAE: Bile duct stenosis: 0 N (%)
  TEAE: Blood alkaline phosphatase increased: 0 N (%)
  TEAE: Decreased appetite: 1 (17) N (%)
  TEAE: Dehydration: 0 N (%)
  TEAE: Dysphagia: 1 (17) N (%)
  TEAE: ECG QT prolonged: 0 N (%)
  TEAE: Enterococcal bacteremia: 0 N (%)
  TEAE: Esophagitis: 0 N (%)
  TEAE: Esophagoscopy: 1 (17) N (%)
  TEAE: Eye pain: 0 N (%)
  TEAE: Fatigue: 3 (50) N (%)
  TEAE: Gastritis: 0 N (%)
  TEAE: Hypomagnesaemia: 0 N (%)
  TEAE: Myalgia: 0 N (%)
  TEAE: Nausea: 0 N (%)
  TEAE: Neutrophil count decreased: 0 N (%)
  TEAE: Oropharyngeal pain: 1 (17) N (%)
  TEAE: Pain in extremity: 1 (17) N (%)
  TEAE: Paresthesia: 0 N (%)
